Like-named read-outs stand apart in the source and are kept apart here.
Key:
Type in all cases: cell-based
[1] = tested on: NCI-N87 human gastric cancer cells; experiment: Inhibitory effects of compounds on NCI-N87 cell proliferation (Cell Counting-Lite 2.0, 72 h); details: NCI-N87, 72 h
Protocol: (1) Cell plating: First, tumor cells NCI-N87 were cultured in the corresponding culture medium, the cells were digested with trypsin, and the cells were resuspended after centrifugation and counted. The cells were adjusted to an appropriate concentration for plating.
(§1) Co-incubation of the compound of the present invention and tumor cells: After the cells adhered, the culture medium was removed from the cell culture plates, and the diluted biologically active molecule (the compound of the present invention) was added to the wells of the above plate, and incubated for 72 hours.
(§2) Detection of in vitro cell activity: After the incubation was completed, 50 μL of Cell Counting-Lite™ 2.0 reagent (Vazyme) was added to each well, shaken and mixed well in the dark to perform the reaction for 10 minutes, then the detection was carried out, and a microplate reader (manufacturer: BMG, model: PHERAStar-FS) was used for reading. The background RLU was obtained using Cell Counting-Lite™ reagent in cell-free culture medium, and the solvent RLU was obtained using Cell Counting-Lite™ reagent in cell-containing culture medium. […] RLU: relative light unit.

HT29 colon cancer cells = experiment: Inhibitory effect of compounds on HT29 cell proliferation (Cell Counting-Lite 2.0, 72 h); details: Homo sapiens
Protocol: (1) Cell plating: First, tumor cells HT29 were cultured in the corresponding culture medium, the cells were digested with trypsin, and the cells were resuspended after centrifugation and counted. The cells were adjusted to an appropriate concentration for plating.
as §1, §2

[2] = tested on: NCI-H1975 human non-small cell lung cancer cells; experiment: Inhibitory effect of compounds on proliferation of NCI-H1975 cells (Cell Counting-Lite 2.0, 72 h); details: Table 10, incubated for 72 hours
Protocol: (1) Cell plating: First, tumor cells NCI-H1975 were cultured in the corresponding culture medium, the cells were digested with trypsin, and the cells were resuspended after centrifugation and counted. The cells were adjusted to an appropriate concentration for plating.
as §1, §2

HCC1954 cells = experiment: Inhibitory effect of compounds on proliferation of HCC1954 cells (Cell Counting-Lite 2.0, 72 h); details: Homo sapiens
Protocol: (1) Cell plating: First, tumor cells HCC1954 were cultured in the corresponding culture medium, the cells were digested with trypsin, and the cells were resuspended after centrifugation and counted. The cells were adjusted to an appropriate concentration for plating.
as §1, §2

[3] = tested on: HCC827 human non-small cell lung cancer cells; experiment: Inhibitory effect of compounds on HCC827 cell proliferation (Cell Counting-Lite 2.0, 72 h); details: Table 6, incubated for 72 hours, read-out: Inhibition activity of compounds on proliferation of HCC827 cells IC50
Protocol: (1) Cell plating: First, tumor cells HCC827 were cultured in the corresponding culture medium, the cells were digested with trypsin, and the cells were resuspended after centrifugation and counted. The cells were adjusted to an appropriate concentration for plating.
as §1, §2

[4] = Table 2-2, incubated for 72 hours
[5] = HT-29, Table 4-2, incubated for 72 hours
[6] = Table 8-2, incubated for 72 hours, read-out: Inhibitory activity of compounds on proliferation of HCC1954 cells IC50
[7] = Table 2-1, incubated for 72 hours
[8] = HT-29, Table 4-1, incubated for 72 hours
[9] = Table 8-1, incubated for 72 hours, read-out: Inhibition activity of compounds on proliferation of HCC1954 cells IC50

Structure (SMILES) | IC50 [1, 4] [nM] | IC50 (HT29 colon cancer cells; [5]) [nM] | IC50 [2] [nM] | IC50 (HCC1954 cells; [6]) [nM] | IC50 [1, 7] [nM] | IC50 (HT29 colon cancer cells; [8]) [nM] | IC50 [3] [nM] | IC50 (HCC1954 cells; [9]) [nM]
COc1ccc(C2=CN3C(=O)c4cc(OC)c(OCCCCCOc5cc6c(cc5OC)C(=O)N5[C@H](CN6)C[C@H]6C[C@H]65)cc4NC(=O)[C@@H]3C2)cc1 [Compound 7-42] | 100 | 99.7 |  |  |  |  |  | 
COc1ccc(C2=CN3C(=O)c4cc(OC)c(OCCCCCOc5cc6c(cc5OC)C(=O)N5CC(F)(F)C[C@H]5CN6)cc4NC[C@@H]3C2)cc1 [Compound 7-39, (S)-8-((5-(((S)-2,2-difluoro-7-methoxy-5-oxo-2,3,5, 10,11,11a-hexahydro-1H-benzo[e]pyrrolo[1,2-a][1,4]diazepin-8-yl)oxy)pentyl)oxy)-7-methoxy-2-(4-methoxyphenyl)-1,10,11,11a-tetrahydro-5H-benzo[e]pyrrolo[1,2-a][1,4]diazepin-5-one] | 11 | 9.7 | 12.3 | 140 |  |  |  | 
COc1cc2c(cc1OCCCCCOc1cc3c(cc1OC)C(=O)N1CC4(CC4)C[C@H]1CN3)NC[C@@H]1CC3(CC3)CN1C2=O [Compound 7-9] |  |  | 107 |  | 29.7 | 14.9 | 116 | 125
COc1cc2c(cc1OCCCCCOc1cc3c(cc1OC)C(=O)N1CC4(CC4)C[C@H]1CN3)NC[C@@H]1CC(c3csc(CO)c3)=CN1C2=O [Compound 7-38, (S)-8-((5-(((S)-2-(5-(hydroxymethyl)thien-3-yl)-7-methoxy-5-oxo-5,10,11,11a-tetrahydro-1H-benzo[e]pyrrolo[1,2-a][1,4]diazepin-8-yl)oxy)pentyl)oxy)-7-methoxy-1,10,11,11a-tetrahydro-3H,5H-spiro[benzo[e]pyrrolo[1,2-a][1,4]diazepin-2,1′-cyclopropane]-5-one] |  |  | 105 |  | 49.7 | 15.4 | 139 | 695
COc1cc2c(cc1OCCCCCOc1cc3c(cc1OC)C(=O)N1CC4(CC4)C[C@H]1CN3)NC[C@@H]1CC(c3ccoc3)=CN1C2=O [Compound 7-36, (S)-8-((5-(((S)-2-(furan-3-yl)-7-methoxy-5-oxo-5,10,11,11a-tetrahydro-1H-benzo[e]pyrrolo[1,2-a][1,4]diazepin-8-yl)oxy)pentyl)oxy)-7-methoxy-1,10,11,11a-tetrahydro-3H,5H-spiro[benzo[e]pyrrolo[1,2-a][1,4]diazepin-2,1′-cyclopropane]-5-one] |  |  | 114 |  | 15.4 | 14.7 | 126 | 144
COc1ccc(C2=CN3C(=O)c4cc(OC)c(OCCCCCOc5cc6c(cc5OC)C(=O)N5C[C@H](O)C[C@H]5CN6)cc4NC[C@@H]3C2)cc1 [Compound 7-40, (S)-8-((5-(((2R,11aS)-2-hydroxy-7-methoxy-5-oxo-2,3,5,10,11,11a-hexahydro-1H-benzo[e]pyrrolo[1,2-a][1,4]diazepin-8-yl)oxy)pentyl)oxy)-7-methoxy-2-(4-methoxyphenyl)-1,10,11,11a-tetrahydro-5H-benzo[e]pyrrolo[1,2-a][1,4]diazepin-5-one] | 93.6 |  |  | 128 |  |  |  | 
C=C1C[C@H]2CNc3cc(OCCCCCOc4cc5c(cc4OC)C(=O)N4C=C(c6ccc(OC)cc6)C[C@H]4CN5)c(OC)cc3C(=O)N2C1 [Compound 7-41, (S)-7-methoxy-8-((5-(((S)-7-methoxy-2-methylene-5-oxo-2,3,5,10,11,11a-hexahydro-1H-benzo[e]pyrrolo[1,2-a][1,4]diazepin-8-yl)oxy)pentyl)oxy)-2-(4-methoxyphenyl)-1,10,11,11a-tetrahydro-5H-benzo[e]pyrrolo[1,2-a][1,4]diazepin-5-one] |  |  | 69.9 |  | 12.7 | 9.8 | 225 | 259
COc1cc2c(cc1OCCCCCOc1cc3c(cc1OC)C(=O)N1CC4(CC4)C[C@H]1CN3)NC[C@@H]1CC(c3ccc(O)cc3)=CN1C2=O [Compound 7-3, (S)-8-((5-(((S)-2-(4-Hydroxyphenyl)-7-methoxy-5-oxo-5,10,11,11a-tetrahydro-1H-benzo[e]pyrrolo[1,2-a][1,4]diazepin-8-yl)oxy)pentyl)oxy)-7-methoxy-1,10,11,11a-tetrahydro-3H,5H-spiro[benzo[e]pyrrolo[1,2-a][1,4]diazepin-2,1′-cyclopropane]-5-one] | 79.3 | 10.2 | 124 | 208 |  |  |  | 
COc1cc2c(cc1OCCCCCOc1cc3c(cc1OC)C(=O)N1CC4(CC4)C[C@H]1CN3)NC[C@@H]1CC(c3ccc(N)cc3)=CN1C2=O [Compound 7-5, (S)-8-((5-(((S)-2-(4-Aminophenyl)-7-methoxy-5-oxo-5,10,11,11a-tetrahydro-1H-benzo[e]pyrrolo[1,2-a][1,4]diazepin-8-yl)oxy)pentyl)oxy)-7-methoxy-1,10,11,11-tetrahydro-3H,5H-spiro[benzo[e]pyrrolo[1,2-a][1,4]diazepin-2,1′-cyclopropane]-5-one] | 4.1 |  | 12.3 |  | 3.2 | 1.4 | 13.1 | 25.9
COc1cc2c(cc1OCCCCCOc1cc3c(cc1OC)C(=O)N1CC4(CC4)C[C@H]1CN3)NC[C@@H]1CC(c3ccsc3)=CN1C2=O [Compound 7-37, (S)-7-methoxy-8-((5-(((S)-7-methoxy-5-oxo-2-(thien-3-yl)-5,10,11,11a-tetrahydro-1H-benzo[e]pyrrolo[1,2-a][1,4]diazepin-8-yl)oxy)pentyl)oxy)-1,10,11,11a-tetrahydro-3H,5H-spiro[benzo[e]pyrrolo[1,2-a][1,4]diazepin-2,1′-cyclopropane]-5-one] |  |  | 101 |  | 24.2 | 16.2 | 124 | 148
COc1cc2c(cc1OCCCCCOc1cc3c(cc1OC)C(=O)N1CC4(CC4)C[C@H]1CN3)NC[C@@H]1C[C@@H](c3ccc(N)cc3)CN1C2=O [Compound 7-34, (S)-8-((5-(((2S,11aS)-2-(4-aminophenyl)-7-methoxy-5-oxo-2,3,5,10,11,11a-hexahydro-1H-benzo[e]pyrrolo[1,2-a][1,4]diazepin-8-yl)oxy)pentyl)oxy)-7-methoxy-1,10,11,11a-tetrahydro-3H,5H-spiro[benzo[e]pyrrolo[1,2-a][1,4]diazepin-2,1′-cyclopropane]-5-one] | 120 |  |  |  |  |  |  | 
COc1ccc(C2=CN3C(=O)c4cc(OC)c(OCCCCCOc5cc6c(cc5OC)C(=O)N5[C@H](CN6)C[C@H]6C[C@H]65)cc4NC[C@@H]3C2)cc1 [Compound 7-43, (1aR,9aS,10aR)-5-methoxy-6-((5-(((S)-7-methoxy-2-(4-methoxyphenyl)-5-oxo-5,10,11,11a-tetrahydro-1H-benzo[e]pyrrolo[1,2-a][1,4]diazepin-8-yl)oxy)pentyl)oxy)-1a,8,9,9a,10,10a-hexahydrobenzo[e]cyclopropo[4,5]pyrrolo[1,2-a][1,4]diazepin-3(1H)-one] | 10.1 | 10.2 |  |  |  |  |  | 
COc1cc2c(cc1OCCCCCOc1cc3c(cc1OC)C(=O)N1CC4(CC4)C[C@H]1CN3)NC[C@@H]1C[C@H](c3ccc(N)cc3)CN1C2=O [Compound 7-35] | 118 |  |  |  |  |  |  | 
COc1cc2c(cc1OCCCCCOc1cc3c(cc1OC)C(=O)N1CC(F)(F)C[C@H]1CN3)NC[C@@H]1CC(c3ccc(N)cc3)=CN1C2=O [Compound 7-29, (S)-2-(4-aminophenyl)-8-((5-(((S)-2,2-difluoro-7-methoxy-5-oxo-2,3,5,10,11,11a-hexahydro-1H-benzo[e]pyrrolo[1,2-a][1,4]diazepin-8-yl)oxy)pentyl)oxy)-7-methoxy-1,10,11,11a-tetrahydro-5H-benzo[e]pyrrolo[1,2-a][1,4]diazepin-5-one] | 117 |  |  | 154 |  |  |  | 

— patent publication US20260274865A1, “Fused Ring Compound and Preparation Method Therefor and Use Thereof” (SICHUAN KELUN-BIOTECH BIOPHARMACEUTICAL CO., LTD., priority 2023, published 2026)
